The values below come from EP1980559A1, “Cardiovascular agents” (CTG Pharma S.r.l., priority 2007, dated 2008).

Molecules are shown by their SMILES.

Test [1] relates to spontaneously hypertensive rats (SHRs). As to the kind of experiment: Antihypertensive activity in vivo: systolic blood pressure by telemetry in conscious SHRs. Particulars: daily oral dose for 3 days, losartan 10 mg/kg po or equimolar dose; for Systolic blood pressure (SBP) 1 hr: 1 hr after dosing; for Systolic blood pressure (SBP) 12 hr: 12 hr after dosing; for Systolic blood pressure (SBP) 24 hr: 24 hr after dosing. As to the method:
The ability of compound of example 1 to decrease blood pressure was evaluated in conscious spontaneously hypertensive rats (SHRs).
Three groups of SHRs (250-300g) received daily oral dose of losartan (10 mg/kg po) or compound of example 1 (equimolar dose) or vehicle (SHR control group) for 3 days. Systolic blood pressure (SBP) and heart rate were monitored by telemetry at different time points after dosing. The SBP was measured at baseline and after 1 hour, 12 hours and 24 hours.

Test [2] deals with NAD(P)H oxidases. As to the kind of experiment: NAD(P)H oxidases inhibition: superoxide (O2^-) release by ferricytochrome c reduction in PAVSMCs. The class given is cell-based, porcine. Particulars: PAVSMCs stimulated with LPS, TNFα and IL1α; 100 nM; 16 hours incubation. On the procedure:
(§1) The method described by Muzaffar S, Shukla N, Angelini GD, Jeremy JY; "Prednisolone augments superoxide formation in porcine pulmonary artery endothelial cells through differential effects on the expression of nitric oxide synthase and NADPH oxidase" in Br. J. Pharmacol. 2005 Ju1;145(5):688-97 was used.
(§2) Briefly lungs were obtained from male pigs of body weight ranging from 20 - 35 kg. Pulmonary arteries (PA) of between 3-4 mm diameter were dissected from the lungs within 30 minutes and placed in Dulbecco's Minimum Essential Medium (DMEM). The arteries were then cut into 2 mm segments for preparation of cell cultures. PAECs were grown in Endothelial Cell Growth Medium at 37°C in a 95% air-5% CO2 incubator. The measurement of superoxide (O2^-) release by cells was performed by detection of ferricytochrome c reduction.
(§3) The reduction of cytochrome c that was inhibitable with SOD reflected actual O2^- release. PAVSMCs and PAECS were seeded and incubated with the TXA2 analogue, U46619, isoprostane F2α,LPS (endotoxin) human recombinant IL-1α and human recombinant TNF-α, alone or with drugs for 16 hours. RESULTS
(§4) LPS, IL-1α, TNF-α and U46619 all promoted the formation of O2^- in both porcine pulmonary artery VSMCs (PAVSMCs) and endothelial cells (PAECS) compared to untreated controls following a 16 hour incubation. […]

The subject of test [3] is NAD(P)H oxidases. As to the kind of experiment: NAD(P)H oxidases inhibition: superoxide (O2^-) release by ferricytochrome c reduction in PAECs. The class given is cell-based, porcine. Particulars: PAECs stimulated with LPS, TNFα and IL1α; 100 nM; 16 hours incubation. On the procedure:
as §1, §2, §3, §4

Test [4] relates to isolated rabbit thoracic aorta preparations. As to the kind of experiment: Study on vascular tone: vasorelaxation in isolated rabbit thoracic aorta preparations. Particulars: aorta rings contracted submaximally with noradrenaline (1 µM); concentration-response curve. On the procedure:
The ability of ARB derivatives to induce vasorelaxation in comparison to native ARB, was tested in vitro in isolated rabbit thoracic aorta preparations (Wanstall J. C. et al., Br. J. Pharmacol., 134:463-472, 2001). Male New Zealand rabbits were anaesthetized with thiopental-Na (50 mg/kg, iv), sacrificed by exsanguinations and then the thorax was opened and the aorta dissected.
Single ring preparations (4 mm in length) of thoracic aorta were set up in physiological salt solution at 37 °C in small organ chambers (5 ml). Each ring was mounted under 2g passive tension in 5 ml organ bath. Preparations were allowed to equilibrate for 1 h, then contracted submaximally with noradrenaline (NA, 1 µM) and, when the contraction was stable, acetylcholine (ACh, 10 µM) was added.
A relaxant response to ACh indicated the presence of a functional endothelium.

Regarding `CCCCc1nc(Cl)c(COC(=O)c2ccc(-c3cssc3=S)cc2)n1Cc1ccc(-c2ccccc2-c2nn[nH]n2)cc1` [Cpd EX.1, 4-(3-thioxo-3H-1,2-dithiol-4-yl)benzoic acid 2-butyl-4-chloro-1-[p-(o-1H-tetrazol-5-ylphenyl)-benzyl]imidazole-5-methyl ester], in test [1], the “Systolic blood pressure (SBP) 1 hr” value was determined as 120 mm Hg, the “Systolic blood pressure (SBP) 12 hr” value was 121 mm Hg, the “Systolic blood pressure (SBP) 24 hr” value is on record as 122 mm Hg and the “Systolic blood pressure (SBP) Baseline” value came to 145 mm Hg.

Turning to `CCCCc1nc(Cl)c(CO)n1Cc1ccc(-c2ccccc2-c2nn[nH]n2)cc1` [Losartan, losartan], in test [2], the “formation of O2^-” value is given as “no significant effect”. Moreover, the “formation of O2^-” value in test [3] is listed as “no significant effect”. In addition, in test [1], the “Systolic blood pressure (SBP) 1 hr” value is given as 135 mm Hg, the “Systolic blood pressure (SBP) 12 hr” value is recorded as 134 mm Hg, the “Systolic blood pressure (SBP) 24 hr” value came out at 135 mm Hg and the “Systolic blood pressure (SBP) Baseline” value is recorded as 143 mm Hg. Further, in test [4], the relaxation entry was “did not produce relaxation at any of the concentration tested”.
